Reference: ChEMBL document CHEMBL5465560, “Selectivity Literature for EUbOPEN Chemogenomic Library” (2024)
Values belong to the compound of their own block, whether it stands above or below them.

Legend:
[1] = target: Mitogen-activated protein kinase kinase kinase 11 (Homo sapiens) (UniProt Q16584); conditions: at 10 µM
[2] = target: Mitogen-activated protein kinase kinase kinase 11 (Homo sapiens) (UniProt Q16584); experiment: Selectivity interaction (Kinase panel (literature)) EUB0001199aCl MAP3K11; conditions: at 1 µM
[3] = target: T1, Dual specificity protein kinase TTK (Homo sapiens) (UniProt P33981); experiment: Selectivity interaction (KinomeScan (DiscoverX)) EUB0000607a TTK; conditions: at 10 µM
T1 sequence (whole entry): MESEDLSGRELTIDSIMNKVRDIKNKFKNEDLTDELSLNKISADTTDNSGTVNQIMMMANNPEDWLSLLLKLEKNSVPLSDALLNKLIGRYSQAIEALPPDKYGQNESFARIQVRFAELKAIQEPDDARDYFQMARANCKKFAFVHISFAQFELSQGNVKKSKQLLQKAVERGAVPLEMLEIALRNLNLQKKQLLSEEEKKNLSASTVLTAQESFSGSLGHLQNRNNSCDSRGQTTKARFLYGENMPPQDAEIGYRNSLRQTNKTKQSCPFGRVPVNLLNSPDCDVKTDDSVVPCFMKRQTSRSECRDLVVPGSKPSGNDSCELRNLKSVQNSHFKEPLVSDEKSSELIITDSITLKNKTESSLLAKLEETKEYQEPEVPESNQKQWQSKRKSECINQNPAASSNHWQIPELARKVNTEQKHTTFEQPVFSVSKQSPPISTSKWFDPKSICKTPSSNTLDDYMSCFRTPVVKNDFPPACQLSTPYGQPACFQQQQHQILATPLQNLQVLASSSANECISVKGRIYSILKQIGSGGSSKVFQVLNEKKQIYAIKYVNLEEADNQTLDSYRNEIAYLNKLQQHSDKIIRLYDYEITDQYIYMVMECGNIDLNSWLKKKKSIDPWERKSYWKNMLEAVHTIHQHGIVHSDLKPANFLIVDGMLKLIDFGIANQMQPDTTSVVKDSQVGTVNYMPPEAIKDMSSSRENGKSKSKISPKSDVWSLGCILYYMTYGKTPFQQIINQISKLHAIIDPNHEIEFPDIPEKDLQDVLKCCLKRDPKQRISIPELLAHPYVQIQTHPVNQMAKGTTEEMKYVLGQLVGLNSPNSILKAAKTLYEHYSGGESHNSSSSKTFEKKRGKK

[4] = target: Calcium/calmodulin-dependent protein kinase type II subunit delta (Homo sapiens) (UniProt Q13557); experiment: Selectivity interaction (ActivX KiNativ screen (ex vivo kinase selectivity in human PBMCs)) EUB0001619a CAMK2D; format: cell-based; conditions: PBMC, at 1 µM
[5] = target: Tyrosine-protein kinase Srms (Homo sapiens) (UniProt Q9H3Y6); experiment: Selectivity interaction (KinomeScan (DiscoverX)) EUB0000045b SRMS
[6] = target: Serine/threonine-protein kinase N2 (Homo sapiens, UniProt Q16513); experiment: Selectivity interaction (Upstate Kinase Profiler service (Millipore)) EUB0000056c PKN2; conditions: at 1 µM
[7] = target: Macrophage-stimulating protein receptor (Homo sapiens, UniProt Q04912); experiment: Selectivity interaction (Upstate Kinase Profiler service (Millipore)) EUB0000056c MST1R; conditions: at 1 µM
[8] = target: T1, Dual specificity protein kinase TTK (Homo sapiens); experiment: Selectivity interaction (ProQinase) EUB0000171b TTK
[9] = target: T2, Serine/threonine-protein kinase BRSK2 (Homo sapiens) (UniProt Q8IWQ3); experiment: Selectivity interaction (ProQinase) EUB0000171b BRSK2
T2 sequence (whole entry): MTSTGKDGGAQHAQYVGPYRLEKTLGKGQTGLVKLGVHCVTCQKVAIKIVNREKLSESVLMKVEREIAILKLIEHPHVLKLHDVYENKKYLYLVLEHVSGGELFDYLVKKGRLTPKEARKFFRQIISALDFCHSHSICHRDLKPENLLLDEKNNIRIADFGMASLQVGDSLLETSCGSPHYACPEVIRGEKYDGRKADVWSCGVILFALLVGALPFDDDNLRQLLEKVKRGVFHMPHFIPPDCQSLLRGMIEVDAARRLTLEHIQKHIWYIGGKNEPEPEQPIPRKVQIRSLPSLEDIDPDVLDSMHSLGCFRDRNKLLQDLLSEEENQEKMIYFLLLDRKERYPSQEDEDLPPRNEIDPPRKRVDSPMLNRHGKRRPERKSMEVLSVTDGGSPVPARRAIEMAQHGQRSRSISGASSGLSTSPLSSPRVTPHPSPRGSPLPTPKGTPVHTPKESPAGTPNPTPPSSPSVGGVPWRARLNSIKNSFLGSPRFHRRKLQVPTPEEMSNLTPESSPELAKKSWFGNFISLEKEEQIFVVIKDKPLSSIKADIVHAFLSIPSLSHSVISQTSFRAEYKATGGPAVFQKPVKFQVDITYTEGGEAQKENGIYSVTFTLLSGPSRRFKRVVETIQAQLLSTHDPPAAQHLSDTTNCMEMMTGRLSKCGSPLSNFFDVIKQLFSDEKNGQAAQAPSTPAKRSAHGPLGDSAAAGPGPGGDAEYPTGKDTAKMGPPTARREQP

[10] = system: Fibroblast growth factor receptor 3 (Homo sapiens), P22607 [K650M]; experiment: (§1) Selectivity interaction (LanthaScreen Eu Kinase Binding Assay) EUB0001632a FGFR3; conditions: at 10 µM
[11] = system: Fibroblast growth factor receptor 3 (Homo sapiens), P22607 [G697C]; experiment: as §1; conditions: at 10 µM
Sequence of Fibroblast growth factor receptor 3 (Homo sapiens), P22607 [G697C] (P22607 whole entry G697C): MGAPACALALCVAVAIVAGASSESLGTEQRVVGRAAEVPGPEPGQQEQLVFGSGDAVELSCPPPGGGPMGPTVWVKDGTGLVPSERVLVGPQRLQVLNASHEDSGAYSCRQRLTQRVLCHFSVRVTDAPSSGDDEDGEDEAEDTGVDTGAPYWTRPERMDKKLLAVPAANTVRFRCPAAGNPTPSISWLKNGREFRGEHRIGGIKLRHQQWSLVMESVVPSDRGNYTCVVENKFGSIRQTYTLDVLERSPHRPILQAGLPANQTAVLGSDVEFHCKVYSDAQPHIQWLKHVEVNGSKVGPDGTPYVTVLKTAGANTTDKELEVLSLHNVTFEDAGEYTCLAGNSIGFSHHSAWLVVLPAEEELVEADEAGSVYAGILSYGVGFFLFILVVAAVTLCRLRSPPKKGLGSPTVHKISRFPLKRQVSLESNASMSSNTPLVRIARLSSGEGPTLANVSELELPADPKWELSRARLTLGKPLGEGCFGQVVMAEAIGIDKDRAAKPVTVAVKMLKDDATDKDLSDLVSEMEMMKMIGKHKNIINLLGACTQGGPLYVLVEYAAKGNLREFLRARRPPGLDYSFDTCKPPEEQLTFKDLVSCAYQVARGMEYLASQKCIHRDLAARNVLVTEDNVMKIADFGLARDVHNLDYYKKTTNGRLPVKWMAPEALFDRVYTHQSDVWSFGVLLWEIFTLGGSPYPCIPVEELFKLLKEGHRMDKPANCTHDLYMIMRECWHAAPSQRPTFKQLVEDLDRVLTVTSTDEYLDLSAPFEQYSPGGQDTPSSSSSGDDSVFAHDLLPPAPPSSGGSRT

Sequence of Tyrosine-protein kinase Srms (Homo sapiens) (Q9H3Y6 whole entry): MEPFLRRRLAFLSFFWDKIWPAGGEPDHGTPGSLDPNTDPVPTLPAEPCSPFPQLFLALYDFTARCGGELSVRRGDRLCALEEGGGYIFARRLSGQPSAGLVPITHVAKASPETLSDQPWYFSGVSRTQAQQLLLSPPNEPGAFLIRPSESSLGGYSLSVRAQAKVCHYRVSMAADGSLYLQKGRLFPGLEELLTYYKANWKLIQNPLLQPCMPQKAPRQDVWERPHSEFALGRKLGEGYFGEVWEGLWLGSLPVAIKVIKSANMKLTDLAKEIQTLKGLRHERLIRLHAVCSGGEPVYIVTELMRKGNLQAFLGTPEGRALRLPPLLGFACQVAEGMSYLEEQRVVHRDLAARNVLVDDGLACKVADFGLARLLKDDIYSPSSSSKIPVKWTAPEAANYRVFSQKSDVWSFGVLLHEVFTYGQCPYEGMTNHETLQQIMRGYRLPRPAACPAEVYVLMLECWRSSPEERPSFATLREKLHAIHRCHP
Sequence of Mitogen-activated protein kinase kinase kinase 11 (Homo sapiens) (Q16584 whole entry, looked up): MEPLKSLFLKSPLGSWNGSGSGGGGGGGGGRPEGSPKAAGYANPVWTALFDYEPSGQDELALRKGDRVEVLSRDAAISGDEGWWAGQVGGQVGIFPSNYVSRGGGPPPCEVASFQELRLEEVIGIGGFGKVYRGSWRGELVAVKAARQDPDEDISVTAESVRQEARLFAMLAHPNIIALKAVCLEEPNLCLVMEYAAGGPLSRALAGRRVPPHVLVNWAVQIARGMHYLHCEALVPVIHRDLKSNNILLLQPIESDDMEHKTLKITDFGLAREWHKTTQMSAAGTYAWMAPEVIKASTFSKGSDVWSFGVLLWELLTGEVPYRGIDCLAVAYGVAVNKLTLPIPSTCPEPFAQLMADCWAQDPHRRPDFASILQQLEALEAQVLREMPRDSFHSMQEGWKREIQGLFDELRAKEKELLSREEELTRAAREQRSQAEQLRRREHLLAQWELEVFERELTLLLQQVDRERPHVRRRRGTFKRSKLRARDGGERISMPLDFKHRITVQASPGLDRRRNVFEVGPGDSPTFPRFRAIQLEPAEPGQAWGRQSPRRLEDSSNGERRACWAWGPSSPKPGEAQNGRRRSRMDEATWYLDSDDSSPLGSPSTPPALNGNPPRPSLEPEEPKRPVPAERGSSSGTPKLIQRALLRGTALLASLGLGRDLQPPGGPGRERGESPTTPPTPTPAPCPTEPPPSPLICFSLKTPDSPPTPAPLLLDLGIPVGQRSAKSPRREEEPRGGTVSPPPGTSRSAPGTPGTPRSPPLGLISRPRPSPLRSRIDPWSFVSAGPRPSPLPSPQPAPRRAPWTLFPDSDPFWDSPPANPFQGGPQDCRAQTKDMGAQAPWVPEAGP
Sequence of Fibroblast growth factor receptor 3 (Homo sapiens), P22607 [K650M] (P22607 whole entry K650M): as the sequence (P22607 whole entry G697C) above, with K650M, C697G counted along it
Sequence of Serine/threonine-protein kinase N2 (Q16513 whole entry, looked up): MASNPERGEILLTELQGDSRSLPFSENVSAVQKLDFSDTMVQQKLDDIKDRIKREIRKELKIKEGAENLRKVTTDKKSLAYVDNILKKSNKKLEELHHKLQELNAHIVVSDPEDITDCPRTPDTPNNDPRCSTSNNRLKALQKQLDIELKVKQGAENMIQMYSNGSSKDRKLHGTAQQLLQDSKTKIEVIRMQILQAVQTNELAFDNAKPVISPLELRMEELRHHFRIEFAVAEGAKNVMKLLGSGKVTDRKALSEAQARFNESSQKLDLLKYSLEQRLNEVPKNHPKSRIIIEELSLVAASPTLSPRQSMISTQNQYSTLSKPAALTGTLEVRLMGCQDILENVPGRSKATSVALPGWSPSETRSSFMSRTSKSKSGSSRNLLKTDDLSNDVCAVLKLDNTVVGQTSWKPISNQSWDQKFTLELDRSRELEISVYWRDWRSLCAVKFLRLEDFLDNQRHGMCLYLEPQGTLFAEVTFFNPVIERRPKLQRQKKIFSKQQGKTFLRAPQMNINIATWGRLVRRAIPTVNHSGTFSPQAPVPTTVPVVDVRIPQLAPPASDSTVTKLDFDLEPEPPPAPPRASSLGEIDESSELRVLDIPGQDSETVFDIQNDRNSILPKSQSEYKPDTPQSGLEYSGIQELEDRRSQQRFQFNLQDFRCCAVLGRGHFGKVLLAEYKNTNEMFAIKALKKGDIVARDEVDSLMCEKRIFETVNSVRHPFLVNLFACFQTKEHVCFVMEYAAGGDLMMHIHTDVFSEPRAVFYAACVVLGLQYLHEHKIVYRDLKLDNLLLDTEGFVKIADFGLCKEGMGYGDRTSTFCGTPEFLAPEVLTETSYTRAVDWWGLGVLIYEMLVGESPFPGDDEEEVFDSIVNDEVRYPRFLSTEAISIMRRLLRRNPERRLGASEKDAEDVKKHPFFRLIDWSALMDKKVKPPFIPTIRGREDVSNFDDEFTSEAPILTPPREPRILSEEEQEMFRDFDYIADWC
Sequence of Macrophage-stimulating protein receptor (Q04912 25-304 limits assumed): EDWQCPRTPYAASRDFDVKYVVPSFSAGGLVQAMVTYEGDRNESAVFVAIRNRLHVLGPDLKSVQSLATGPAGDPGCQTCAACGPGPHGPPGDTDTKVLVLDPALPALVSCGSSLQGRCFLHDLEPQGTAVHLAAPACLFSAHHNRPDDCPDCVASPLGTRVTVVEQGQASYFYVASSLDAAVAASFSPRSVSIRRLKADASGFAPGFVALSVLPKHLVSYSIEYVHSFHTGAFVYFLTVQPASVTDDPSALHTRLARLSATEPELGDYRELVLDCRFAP
Sequence of Macrophage-stimulating protein receptor (Q04912 310-1400 limits assumed): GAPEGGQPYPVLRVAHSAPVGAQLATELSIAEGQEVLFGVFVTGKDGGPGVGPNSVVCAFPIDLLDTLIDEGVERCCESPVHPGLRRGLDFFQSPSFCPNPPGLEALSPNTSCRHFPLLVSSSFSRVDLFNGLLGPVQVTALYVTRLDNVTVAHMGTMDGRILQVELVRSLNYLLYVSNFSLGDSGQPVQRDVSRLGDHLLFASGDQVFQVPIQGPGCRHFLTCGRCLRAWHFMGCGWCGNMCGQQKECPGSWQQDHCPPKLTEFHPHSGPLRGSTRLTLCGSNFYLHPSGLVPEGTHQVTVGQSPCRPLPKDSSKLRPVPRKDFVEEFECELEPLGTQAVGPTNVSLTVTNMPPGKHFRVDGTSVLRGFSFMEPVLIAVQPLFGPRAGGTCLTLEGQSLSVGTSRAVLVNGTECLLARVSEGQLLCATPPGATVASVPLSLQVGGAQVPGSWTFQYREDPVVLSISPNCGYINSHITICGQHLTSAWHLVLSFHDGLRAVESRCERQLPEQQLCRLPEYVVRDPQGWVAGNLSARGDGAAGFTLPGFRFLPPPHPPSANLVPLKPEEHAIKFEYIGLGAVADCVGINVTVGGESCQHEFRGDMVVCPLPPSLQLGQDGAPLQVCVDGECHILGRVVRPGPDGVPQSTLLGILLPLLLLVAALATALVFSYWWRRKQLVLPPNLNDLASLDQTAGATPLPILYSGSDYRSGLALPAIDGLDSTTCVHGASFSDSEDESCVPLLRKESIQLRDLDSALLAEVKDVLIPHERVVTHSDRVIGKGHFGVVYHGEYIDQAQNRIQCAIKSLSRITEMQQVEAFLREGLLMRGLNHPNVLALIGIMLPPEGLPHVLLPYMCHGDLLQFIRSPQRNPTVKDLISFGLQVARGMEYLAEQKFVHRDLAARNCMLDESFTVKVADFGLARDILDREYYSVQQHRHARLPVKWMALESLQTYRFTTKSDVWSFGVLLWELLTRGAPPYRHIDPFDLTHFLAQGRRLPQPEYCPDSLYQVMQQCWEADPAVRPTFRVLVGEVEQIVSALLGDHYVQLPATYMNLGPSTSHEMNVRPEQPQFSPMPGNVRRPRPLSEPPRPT
Sequence of Calcium/calmodulin-dependent protein kinase type II subunit delta (Homo sapiens) (Q13557 whole entry): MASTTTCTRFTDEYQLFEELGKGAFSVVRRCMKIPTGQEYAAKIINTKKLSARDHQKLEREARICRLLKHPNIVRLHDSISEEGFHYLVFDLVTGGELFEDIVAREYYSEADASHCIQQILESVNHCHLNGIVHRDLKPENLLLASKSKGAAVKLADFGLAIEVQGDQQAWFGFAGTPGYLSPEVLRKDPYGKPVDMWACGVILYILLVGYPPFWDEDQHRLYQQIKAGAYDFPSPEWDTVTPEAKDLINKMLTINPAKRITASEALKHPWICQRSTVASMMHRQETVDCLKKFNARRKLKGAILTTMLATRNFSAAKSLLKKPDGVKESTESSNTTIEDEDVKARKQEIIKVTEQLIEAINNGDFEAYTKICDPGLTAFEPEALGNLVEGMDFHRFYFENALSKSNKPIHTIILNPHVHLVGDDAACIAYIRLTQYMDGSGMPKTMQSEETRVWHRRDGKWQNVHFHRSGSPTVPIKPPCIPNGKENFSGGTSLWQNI

Compound: CCN(CC)CCCCNc1ncc2cc(-c3cc(OC)cc(OC)c3)c(NC(=O)NC(C)(C)C)nc2n1
% of control [1]: 100%

Compound: CNC(=O)Nc1ccc(-c2nc(N3CC4CCC(C3)O4)c3cnn(C4CCC5(CC4)OCCO5)c3n2)cc1
% of control [3]: 100%

Compound: N#Cc1cccc(-c2c[nH]c3ncnc(N4CCOCC4)c23)c1
% of inhibition [4]: 4%

Compound: C=CC(=O)Nc1cc(-n2c(=O)ccc3cnc4ccc(-c5ccc(NS(C)(=O)=O)cc5)cc4c32)ccc1C
% of control ([5]; at 1 µM): 100% | % of control ([5]; at 10 µM): 100%

Next, values leading:

% of inhibition [2]: 3%
Compound: CN1Cc2nccc(-c3cn(C)nc3-c3ccc(F)cc3)c2C1=O

% of inhibition [6]: -8% | % of inhibition [7]: 20%
Compound: Cc1ccc(-c2ccc3c(ccc4sc5c(c43)NC[C@@H](C)NC5=O)n2)cn1

% of control ([8]; at 1 µM): 72% | % of control ([8]; at 5 µM): 34% | % of control ([9]; at 1 µM): 103% | % of control ([9]; at 5 µM): 85%
Compound: C=CC(=O)Nc1cccc(C(=O)Nc2ccc(Nc3cc(-c4[nH]c(SC)nc4C)ccn3)cc2)c1

% of inhibition [10]: -215% | % of inhibition [11]: -105%
Compound: Cn1cc(-n2cnc3c(NCc4nc5cc(Cl)c(Cl)cc5[nH]4)nc(N4CCOCC4)nc32)cn1
